Read-outs that look alike come from different tables or passages of the source.

Assay [1] addresses T1, human Cav3.2 T-type Ca2+ channel (Homo sapiens, UniProt O95180).
T1 construct: expressed in transfected cells; host or cells: KJMGER8 cells (Namalwa cell-derived cell line)
In words: Inhibitory effect for intracellular calcium response via Cav3.2 T-type Ca2+ channels (FLIPR Calcium 3 Assay Kit). Type of assay: cell-based. For orientation: A change in cytosolic calcium serves as a functional read-out for many receptors and channels.

Assay [2] relates to morphine-induced pruritus mice. In words: Inhibitory effect for pruritus in morphine-induced pruritus mice. Type of assay: in vivo. As to conditions: oral dose of 10 mg/kg or less, given 30 minutes or 1 hour before intrathecal morphine; scratching counted for 30 minutes; male ddY mice. On the procedure:
Inhibitory Effect for Pruritus in Morphine-Induced Pruritus Mice
Morphine (1 nmol/5 μL, dissolved in physiological saline) or physiological saline was intrathecally administered between the fifth and sixth lumbar vertebrae of male ddY mice using a microsyringe fitted with a 30-gauge injection needle. Mice to which only morphine was administered were referred to as a control group, and mice to which only physiological saline was administered were referred to as a physiological saline-administered group.
The number of scratching behavior with the hind legs which began to be observed immediately after the morphine administration was measured for 30 minutes. Because mice show continuous scratching actions in each scratching behavior, a series of such actions was counted as a single scratching behavior.
Each test compound was administered 30 minutes or 1 hour before the morphine administration. The test compound was suspended in a 0.5% methylcellulose solution and was prepared plural administration solutions of different concentrations, and each of them was orally administered in a volume of 10 mL/kg.

Setting [3] is: human Cav3.2-expressing KJMGER8 cells (Namalwa-derived), calcium response induced by 5 mmol/L CaCl2, 3 μmol/L mibefradil as reference, read-out: IC50 for the human Cav3.2 T-type Ca2+ current.

T1 sequence (O95180 whole entry): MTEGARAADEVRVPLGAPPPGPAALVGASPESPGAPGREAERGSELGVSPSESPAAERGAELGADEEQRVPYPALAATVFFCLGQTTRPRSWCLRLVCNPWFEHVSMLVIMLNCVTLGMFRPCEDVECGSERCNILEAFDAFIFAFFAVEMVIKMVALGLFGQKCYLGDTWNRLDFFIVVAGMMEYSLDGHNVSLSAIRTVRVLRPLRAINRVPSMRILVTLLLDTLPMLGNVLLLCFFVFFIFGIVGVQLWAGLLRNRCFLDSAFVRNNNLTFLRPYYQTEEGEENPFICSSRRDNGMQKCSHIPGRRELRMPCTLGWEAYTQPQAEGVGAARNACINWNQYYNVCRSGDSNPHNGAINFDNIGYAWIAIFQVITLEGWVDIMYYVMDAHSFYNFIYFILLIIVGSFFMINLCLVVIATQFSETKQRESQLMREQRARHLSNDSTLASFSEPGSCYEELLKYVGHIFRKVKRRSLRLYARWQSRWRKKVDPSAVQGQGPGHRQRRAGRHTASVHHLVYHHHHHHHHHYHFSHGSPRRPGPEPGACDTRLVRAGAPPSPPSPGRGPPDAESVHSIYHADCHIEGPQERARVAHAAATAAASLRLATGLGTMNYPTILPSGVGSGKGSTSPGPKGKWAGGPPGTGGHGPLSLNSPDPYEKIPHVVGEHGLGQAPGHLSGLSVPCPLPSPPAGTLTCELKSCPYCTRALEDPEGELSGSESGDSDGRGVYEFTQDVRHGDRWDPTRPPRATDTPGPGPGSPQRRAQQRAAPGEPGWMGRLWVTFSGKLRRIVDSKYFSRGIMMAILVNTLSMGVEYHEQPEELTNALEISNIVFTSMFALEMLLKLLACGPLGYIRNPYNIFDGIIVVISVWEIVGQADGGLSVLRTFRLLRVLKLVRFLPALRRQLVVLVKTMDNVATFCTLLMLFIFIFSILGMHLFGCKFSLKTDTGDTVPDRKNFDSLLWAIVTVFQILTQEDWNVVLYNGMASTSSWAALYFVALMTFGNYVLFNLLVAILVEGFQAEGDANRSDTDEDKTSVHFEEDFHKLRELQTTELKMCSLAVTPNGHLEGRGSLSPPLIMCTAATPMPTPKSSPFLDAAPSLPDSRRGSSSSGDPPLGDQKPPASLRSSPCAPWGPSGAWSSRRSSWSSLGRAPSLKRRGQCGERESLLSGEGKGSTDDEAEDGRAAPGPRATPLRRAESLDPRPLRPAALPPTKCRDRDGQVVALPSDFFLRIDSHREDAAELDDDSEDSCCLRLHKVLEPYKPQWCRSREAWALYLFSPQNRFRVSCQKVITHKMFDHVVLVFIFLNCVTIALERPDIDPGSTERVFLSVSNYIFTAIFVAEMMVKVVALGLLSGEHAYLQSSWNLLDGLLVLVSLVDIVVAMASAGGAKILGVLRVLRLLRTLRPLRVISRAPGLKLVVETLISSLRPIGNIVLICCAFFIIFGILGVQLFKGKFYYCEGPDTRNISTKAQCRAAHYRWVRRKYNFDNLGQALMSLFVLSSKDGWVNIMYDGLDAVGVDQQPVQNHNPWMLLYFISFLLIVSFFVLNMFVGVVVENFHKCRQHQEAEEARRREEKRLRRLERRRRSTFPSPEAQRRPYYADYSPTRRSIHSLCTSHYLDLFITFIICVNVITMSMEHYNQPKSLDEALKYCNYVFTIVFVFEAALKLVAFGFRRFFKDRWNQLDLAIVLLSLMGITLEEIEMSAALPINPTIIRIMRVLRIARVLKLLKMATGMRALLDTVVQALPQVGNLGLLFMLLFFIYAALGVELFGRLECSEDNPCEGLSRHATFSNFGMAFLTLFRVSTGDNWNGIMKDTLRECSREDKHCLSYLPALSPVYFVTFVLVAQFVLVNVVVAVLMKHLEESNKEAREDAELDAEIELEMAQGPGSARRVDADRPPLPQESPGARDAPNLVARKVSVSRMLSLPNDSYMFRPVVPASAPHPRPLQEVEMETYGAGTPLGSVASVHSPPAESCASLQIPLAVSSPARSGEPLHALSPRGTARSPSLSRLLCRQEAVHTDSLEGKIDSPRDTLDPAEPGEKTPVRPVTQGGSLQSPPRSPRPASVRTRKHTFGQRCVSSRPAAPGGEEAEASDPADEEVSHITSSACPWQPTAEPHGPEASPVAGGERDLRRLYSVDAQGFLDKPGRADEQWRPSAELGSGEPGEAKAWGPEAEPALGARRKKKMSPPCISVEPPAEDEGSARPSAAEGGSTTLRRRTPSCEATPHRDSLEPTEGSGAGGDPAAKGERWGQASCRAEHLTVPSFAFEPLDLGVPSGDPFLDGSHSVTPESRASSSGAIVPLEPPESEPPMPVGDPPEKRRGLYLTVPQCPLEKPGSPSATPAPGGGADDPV

For `CN(C)CC(C)(C)CNC(=O)c1cc(C#N)n2c(CC3CCC(F)(F)CC3)c(C(F)(F)F)nc2c1` [Compound 182, 5-Cyano-3-[(4,4-difluorocyclohexyl)methyl]-N-[3-(dimethylamino)-2,2-dimethylpropyl]-2-(trifluoromethyl)imidazo[1,2-a]pyridine-7-carboxamide], in assay [1] (setting [3]), the 50% inhibitory concentration (IC50) was no more than 100 nM. The “inhibition of the increase of the scratching behavior in morphine-induced pruritus mice” value in assay [2] is “inhibited the increase of the scratching behavior”.
As for `CC(F)(F)c1nc2cc(C(=O)N[C@H]3C[C@@H]4CC[C@H]3O4)cc(C#N)n2c1CC1CCC(F)(F)CC1` [Compound 183, N-[(1R,2S,4S)-7-Oxabicyclo[2.2.1]heptan-2-yl]-5-cyano-3-[(4,4-difluorocyclohexyl)methyl]-2-(1,1-difluoroethyl)imidazo[1,2-a]pyridine-7-carboxamide], in assay [1], the IC50 was no more than 100 nM. Moreover, the “inhibition of the increase of the scratching behavior in morphine-induced pruritus mice” value in assay [2] is “inhibited the increase of the scratching behavior”.
In the case of `COC(C)(C)CNC(=O)c1cc2nc(C(C)(F)F)c(CC3CCC(F)(F)CC3)n2c(C#N)c1C` [Compound 184, 5-Cyano-3-[(4,4-difluorocyclohexyl)methyl]-2-(1,1-difluoroethyl)-N-(2-methoxy-2-methylpropyl)-6-methylimidazo[1,2-a]pyridine-7-carboxamide], the IC50 in assay [1] was no more than 100 nM. Also, in assay [2], the “inhibition of the increase of the scratching behavior in morphine-induced pruritus mice” value is given as “inhibited the increase of the scratching behavior”.
As to `Cc1c(C(=O)NC2CCOCC2)cc2nc(C(C)(F)F)c(CC3CCC(F)(F)CC3)n2c1C#N` [Compound 185, 5-Cyano-3-[(4,4-difluorocyclohexyl)methyl]-2-(1,1-difluoroethyl)-6-methyl-N-(tetrahydro-2H-pyran-4-yl)imidazo[1,2-a]pyridine-7-carboxamide], the IC50 in assay [1] was no more than 100 nM. In assay [2], the “inhibition of the increase of the scratching behavior in morphine-induced pruritus mice” value is “inhibited the increase of the scratching behavior”.
Consider `[2H]C([2H])([2H])OC(C)(C)CNC(=O)c1cc(C#N)n2c(CC3CCC(F)(F)CC3)c(C(F)(F)F)nc2c1` [Compound 186, 5-Cyano-3-[(4,4-difluorocyclohexyl)methyl]-N-(2-methoxy-d3-2-methylpropyl)-2-(trifluoromethyl)imidazo[1,2-a]pyridine-7-carboxamide], for which the IC50 in assay [1] is no more than 100 nM. In assay [2], the “inhibition of the increase of the scratching behavior in morphine-induced pruritus mice” value was “inhibited the increase of the scratching behavior”.
Turning to `CC(C)(CNC(=O)c1cc(C#N)n2c(CC3CCC(F)(F)CC3)c(C(F)(F)F)nc2c1)S(C)(=O)=O` [Compound 189, 5-Cyano-3-[(4,4-difluorocyclohexyl)methyl]-N-[2-methyl-2-(methylsulfonyl)propyl]-2-(trifluoromethyl)imidazo[1,2-a]pyridine-7-carboxamide], in assay [1] (setting [3]), the half-maximal inhibitory concentration (IC50) was no more than 100 nM. For the same compound, the “inhibition of the increase of the scratching behavior in morphine-induced pruritus mice” value in assay [2] is listed as “inhibited the increase of the scratching behavior”.
`[2H]C([2H])([2H])OC(C)(C)CNC(=O)c1cc2nc(C(C)(F)F)c(CC3CCC(F)(F)CC3)n2c(C#N)c1C` [Compound 190, 5-Cyano-3-[(4,4-difluorocyclohexyl)methyl]-2-(1,1-difluoroethyl)-N-(2-methoxy-d3-2-methylpropyl)-6-methylimidazo[1,2-a]pyridine-7-carboxamide]: the concentration for half-maximal inhibition (IC50) in assay [1] was no more than 100 nM. Moreover, in assay [2], the “inhibition of the increase of the scratching behavior in morphine-induced pruritus mice” value is reported as “inhibited the increase of the scratching behavior”.
With `[2H]C([2H])([2H])OC(C)(C)CNC(=O)c1cc(C#N)n2c(CC3CCC(F)(F)CC3)c(C(C)(F)F)nc2c1` [Compound 194, 5-Cyano-3-[(4,4-difluorocyclohexyl)methyl]-2-(1,1-difluoroethyl)-N-(2-methoxy-d3-2-methylpropyl)imidazo[1,2-a]pyridine-7-carboxamide], the IC50 in assay [1] was no more than 100 nM. The “inhibition of the increase of the scratching behavior in morphine-induced pruritus mice” value in assay [2] was “inhibited the increase of the scratching behavior”.
As for `CC(C)(CNC(=O)c1cc(Cl)n2c(CC3CCC(F)(F)CC3)c(C(F)(F)F)nc2c1)S(C)(=O)=O` [Compound 197, 5-Chloro-3-[(4,4-difluorocyclohexyl)methyl]-N-[2-methyl-2-(methylsulfonyl)propyl]-2-(trifluoromethyl)imidazo[1,2-a]pyridine-7-carboxamide], the IC50 in assay [1] was no more than 100 nM. Besides, in assay [2], the “inhibition of the increase of the scratching behavior in morphine-induced pruritus mice” value is “inhibited the increase of the scratching behavior”.
Take `Cc1cc(C(=O)NC2CCOCC2)cc2nc(C(F)(F)F)c(Cc3ccc(Cl)cc3)n12` [Compound 208, 3-(4-Chlorobenzyl)-5-methyl-N-(tetrahydro-2H-pyran-4-yl)-2-(trifluoromethyl)imidazo[1,2-a]pyridine-7-carboxamide]: in assay [1], the concentration for half-maximal inhibition (IC50) was no more than 100 nM. Moreover, the “inhibition of the increase of the scratching behavior in morphine-induced pruritus mice” value in assay [2] is recorded as “inhibited the increase of the scratching behavior”.

The term IC50 denotes the concentration that gives 50% inhibition.

The values above are taken from patent US9540366B2, “Ring-fused heterocyclic compound” (Kyowa Hakko Kirin Co., Ltd., priority 2012, dated 2017).
